Test results from patent US12083124B2 (Incyte Corporation, priority 2019, dated 2024).
Where two headings read alike, the source gives them in different places.

Tests used:
[1] = molecular target: wild-type un-phosphorylated FGFR4 (Homo sapiens, UniProt P22455); assay: FGFR Enzymatic Assay (FRET peptide phosphorylation), FGFR4
[2] = molecular target: wild-type un-phosphorylated FGFR3 (Homo sapiens, UniProt P22607); assay: FGFR Enzymatic Assay (FRET peptide phosphorylation), FGFR3
Method: The inhibitor potency of the exemplified compounds was determined in an enzyme discontinuous assay that measures peptide phosphorylation using FRET measurements to detect product formation. Inhibitors were serially diluted in DMSO and a volume of 0.2 μL was transferred to the wells of a 384-well plate. […] Appropriate controls (enzyme blank and enzyme with no inhibitor) were included on the plate. […] The 10 μL/well reaction concentration of the peptide substrate was 500 nM whereas the ATP concentration was maintained near or below the ATP Km. The ATP Km values were pre-determined in a separate series of experiments. The reaction plate was incubated at 25° C. for 1 hr and the reactions were ended with the addition of 5 μL/well of quench solution (50 mM Tris, 150 mM NaCl, 0.5 mg/mL BSA, pH 7.8; 45 mM EDTA, 600 nM staurosporin, with Perkin Elmer Lance Reagents at 3.75 nM Eu-antibody PY20 and 180 nM APC-Streptavidin). The plate was allowed to equilibrate for ˜10 minutes at ambient temperature before scanning on a PheraStar plate reader (BMG Labtech) instrument.
Either GraphPad prism or XLfit was used to analyze the data. The IC50 values were derived by fitting the data to a four parameter logistic equation producing a sigmoidal dose-response curve with a variable Hill coefficient. Prism equation: Y=Bottom+(Top-Bottom)/(1+10^((Log IC50-X)*Hill slope)); XLfit equation: Y=(A+((B−A)/(1+((X/C)^D)))) where X is the logarithm of inhibitor concentration and Y is the response.
GraphPad prism3 was used to analyze the data. The IC50 values were derived by fitting the data to the equation for a sigmoidal dose-response with a variable slope. Y=Bottom+(Top-Bottom)/(1+10^((Log IC50-X)*Hill Slope)) where X is the logarithm of concentration and Y is the response.

[3] = molecular target: wild-type un-phosphorylated FGFR2 (Homo sapiens, UniProt P21802); assay: FGFR Enzymatic Assay (FRET peptide phosphorylation), FGFR2
[4] = molecular target: wild-type un-phosphorylated FGFR1 (Homo sapiens, UniProt P11362); assay: FGFR Enzymatic Assay (FRET peptide phosphorylation), FGFR1; conditions: pre-incubated for 4 hours
[5] = read-out: FGFR1, wild-type un-phosphorylated FGFR1
[6] = FGFR1, wild-type un-phosphorylated FGFR1
[7] = read-out: FGFR2, wild-type un-phosphorylated FGFR2, pre-incubated for 4 hours
[8] = read-out: FGFR4, wild-type un-phosphorylated FGFR4, pre-incubated for 4 hours

wild-type un-phosphorylated FGFR3, sequence (P22607 23-806): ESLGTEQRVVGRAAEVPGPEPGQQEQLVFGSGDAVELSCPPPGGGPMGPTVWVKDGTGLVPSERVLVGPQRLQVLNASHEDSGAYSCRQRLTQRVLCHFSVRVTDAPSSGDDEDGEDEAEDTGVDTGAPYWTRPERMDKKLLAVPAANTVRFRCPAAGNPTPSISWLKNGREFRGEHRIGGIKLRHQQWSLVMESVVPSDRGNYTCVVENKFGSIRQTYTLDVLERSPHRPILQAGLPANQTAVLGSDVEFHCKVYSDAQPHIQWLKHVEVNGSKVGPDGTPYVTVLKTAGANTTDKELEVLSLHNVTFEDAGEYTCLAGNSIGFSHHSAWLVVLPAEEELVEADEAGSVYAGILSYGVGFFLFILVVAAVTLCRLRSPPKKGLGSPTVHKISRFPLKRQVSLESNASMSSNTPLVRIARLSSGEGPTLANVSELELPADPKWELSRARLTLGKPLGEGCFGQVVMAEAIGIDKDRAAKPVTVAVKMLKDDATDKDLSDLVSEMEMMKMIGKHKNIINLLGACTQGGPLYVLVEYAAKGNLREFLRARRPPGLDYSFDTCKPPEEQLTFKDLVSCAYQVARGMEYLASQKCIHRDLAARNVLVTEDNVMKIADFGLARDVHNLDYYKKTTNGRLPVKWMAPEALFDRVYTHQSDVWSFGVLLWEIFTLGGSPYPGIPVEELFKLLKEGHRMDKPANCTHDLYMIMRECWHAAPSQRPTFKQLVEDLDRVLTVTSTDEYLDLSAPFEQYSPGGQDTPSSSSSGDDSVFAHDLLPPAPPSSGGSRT
wild-type un-phosphorylated FGFR2, sequence (P21802 22-821): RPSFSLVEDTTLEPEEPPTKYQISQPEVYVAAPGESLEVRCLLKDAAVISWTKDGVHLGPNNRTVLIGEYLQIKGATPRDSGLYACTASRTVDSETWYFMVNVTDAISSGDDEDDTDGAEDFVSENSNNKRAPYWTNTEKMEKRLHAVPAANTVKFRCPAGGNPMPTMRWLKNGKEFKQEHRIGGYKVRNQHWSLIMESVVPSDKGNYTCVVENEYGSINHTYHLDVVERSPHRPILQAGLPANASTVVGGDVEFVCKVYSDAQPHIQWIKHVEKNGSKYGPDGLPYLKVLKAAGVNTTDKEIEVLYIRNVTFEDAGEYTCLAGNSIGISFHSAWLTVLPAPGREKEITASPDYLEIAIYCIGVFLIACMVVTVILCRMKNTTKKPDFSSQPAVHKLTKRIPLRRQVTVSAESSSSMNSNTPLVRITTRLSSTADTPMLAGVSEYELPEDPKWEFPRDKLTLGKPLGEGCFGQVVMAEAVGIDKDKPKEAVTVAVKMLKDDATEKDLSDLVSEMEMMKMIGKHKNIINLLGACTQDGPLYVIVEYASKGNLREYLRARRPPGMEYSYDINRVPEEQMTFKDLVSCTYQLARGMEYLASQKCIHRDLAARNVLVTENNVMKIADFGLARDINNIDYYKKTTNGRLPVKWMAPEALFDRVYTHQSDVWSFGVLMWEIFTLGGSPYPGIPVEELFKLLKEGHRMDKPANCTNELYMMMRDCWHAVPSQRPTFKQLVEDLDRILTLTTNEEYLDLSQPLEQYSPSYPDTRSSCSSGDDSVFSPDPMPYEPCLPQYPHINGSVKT
wild-type un-phosphorylated FGFR4, sequence (P22455 22-802): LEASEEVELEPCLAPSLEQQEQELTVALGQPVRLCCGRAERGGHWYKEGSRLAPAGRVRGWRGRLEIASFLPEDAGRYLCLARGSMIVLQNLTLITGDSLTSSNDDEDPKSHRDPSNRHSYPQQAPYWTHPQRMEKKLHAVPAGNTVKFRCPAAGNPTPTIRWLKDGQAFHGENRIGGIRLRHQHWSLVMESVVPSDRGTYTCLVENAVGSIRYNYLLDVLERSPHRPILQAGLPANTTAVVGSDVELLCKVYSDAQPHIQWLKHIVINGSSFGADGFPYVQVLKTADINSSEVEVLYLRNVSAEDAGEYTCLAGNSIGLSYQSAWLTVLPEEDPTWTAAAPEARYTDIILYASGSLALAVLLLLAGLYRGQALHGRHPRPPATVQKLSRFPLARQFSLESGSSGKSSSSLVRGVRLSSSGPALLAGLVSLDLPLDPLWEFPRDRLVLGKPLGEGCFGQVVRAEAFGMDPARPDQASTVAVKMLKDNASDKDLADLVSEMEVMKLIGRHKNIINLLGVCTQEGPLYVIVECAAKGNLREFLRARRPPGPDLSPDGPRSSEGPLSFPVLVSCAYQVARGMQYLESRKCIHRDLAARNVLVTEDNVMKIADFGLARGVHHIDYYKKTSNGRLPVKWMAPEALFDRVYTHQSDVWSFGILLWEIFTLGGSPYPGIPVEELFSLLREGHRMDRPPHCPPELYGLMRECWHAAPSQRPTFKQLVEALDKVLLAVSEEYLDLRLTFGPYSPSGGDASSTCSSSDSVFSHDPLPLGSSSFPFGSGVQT
wild-type un-phosphorylated FGFR1, sequence (P11362 22-822): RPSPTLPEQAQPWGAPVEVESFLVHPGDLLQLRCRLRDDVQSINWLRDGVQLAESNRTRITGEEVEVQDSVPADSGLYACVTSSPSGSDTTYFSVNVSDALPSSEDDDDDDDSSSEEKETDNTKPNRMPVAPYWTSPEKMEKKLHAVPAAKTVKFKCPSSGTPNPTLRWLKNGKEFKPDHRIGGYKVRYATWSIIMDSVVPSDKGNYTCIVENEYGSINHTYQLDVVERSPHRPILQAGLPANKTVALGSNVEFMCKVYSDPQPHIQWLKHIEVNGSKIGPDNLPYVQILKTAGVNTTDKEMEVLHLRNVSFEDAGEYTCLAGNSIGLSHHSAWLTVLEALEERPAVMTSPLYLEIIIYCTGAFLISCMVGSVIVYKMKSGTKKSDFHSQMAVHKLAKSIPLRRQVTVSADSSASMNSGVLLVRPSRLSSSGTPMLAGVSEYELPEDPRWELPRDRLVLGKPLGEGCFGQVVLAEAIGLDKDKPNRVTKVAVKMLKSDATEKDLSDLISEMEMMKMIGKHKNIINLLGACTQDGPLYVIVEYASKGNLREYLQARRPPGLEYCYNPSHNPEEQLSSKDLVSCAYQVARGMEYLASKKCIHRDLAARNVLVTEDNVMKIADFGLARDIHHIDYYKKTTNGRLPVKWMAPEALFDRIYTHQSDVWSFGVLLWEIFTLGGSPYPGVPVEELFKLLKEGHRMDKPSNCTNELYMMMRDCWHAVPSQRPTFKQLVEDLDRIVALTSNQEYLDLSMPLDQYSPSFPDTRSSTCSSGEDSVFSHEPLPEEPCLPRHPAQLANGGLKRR

| SMILES | IC50 [1] | IC50 [2] | IC50 [3] | IC50 [4, 5] | IC50 [4, 6] | IC50 [3, 7] | IC50 [1, 8] |
| --- | --- | --- | --- | --- | --- | --- | --- |
| CCN1CCN(c2ccc(-c3n[nH]c4cc(OC)c(-c5cccc(C)c5C)nc34)cn2)CC1 [Example 42, 5-(2,3-Dimethylphenyl)-3-(6-(4-ethylpiperazin-1-yl)pyridin-3-yl)-6-methoxy-1H-pyrazolo[4,3-b]pyridine] | > 100 nM | < 6 nM | < 6 nM | – | 40 to 100 nM | – | – |
| COc1cc2[nH]nc(-c3cnn(C)c3)c2nc1-c1cccc2c1CC(O)C2 (single isomer, unassigned) [Example 10, 4-(6-Methoxy-3-(1-methyl-1H-pyrazol-4-yl)-1H-pyrazolo[4,3-b]pyridin-5-yl)-2,3-dihydro-1H-inden-2-ol] | > 100 nM | < 6 nM | – | – | 40 to 100 nM | 6 to 40 nM | – |
| COc1cc2[nH]nc(-c3ccc(C4CCN(C(C)=O)CC4)nc3)c2nc1-c1cccc2c1CCC2 [Example 99, 1-(4-(5-(5-(2,3-Dihydro-1H-inden-4-yl)-6-methoxy-1H-pyrazolo[4,3-b]pyridin-3-yl)pyridin-2-yl)piperidin-1-yl)ethan-1-one] | – | < 6 nM | < 6 nM | 6 to 40 nM | – | – | 6 to 40 nM |
| COc1cc2[nH]nc(-c3ccc(C4CCN(C(=O)N5CCOCC5)C4)nc3)c2nc1-c1cccc2c1CCC2C#N (single isomer, unassigned) [Example 184, 4-(6-Methoxy-3-(6-(1-(morpholine-4-carbonyl)pyrrolidin-3-yl)pyridin-3-yl)-1H-pyrazolo[4,3-b]pyridin-5-yl)-2,3-dihydro-1H-indene-1-carbonitrile] | – | < 6 nM | < 6 nM | 6 to 40 nM | – | – | 6 to 40 nM |
| COc1cc2[nH]nc(-c3ccc(N4CCN(C)CC4)nc3)c2nc1-c1cccc2c1CCC2C#N (centres unmarked) [Example 110, 4-(6-Methoxy-3-(6-(4-methylpiperazin-1-yl)pyridin-3-yl)-1H-pyrazolo[4,3-b]pyridin-5-yl)-2,3-dihydro-1H-indene-1-carbonitrile] | – | < 6 nM | < 6 nM | 6 to 40 nM | – | – | 6 to 40 nM |
| COc1cc2[nH]nc(-c3cnn(C4CN(C(=O)[C@@H](C)O)C4)c3)c2nc1-c1cccc2c1CCC2 [Example 123, (R)-1-(3-(4-(5-(2,3-Dihydro-1H-inden-4-yl)-6-methoxy-1H-pyrazolo[4,3-b]pyridin-3-yl)-1H-pyrazol-1-yl)azetidin-1-yl)-2-hydroxypropan-1-one] | – | < 6 nM | < 6 nM | 6 to 40 nM | – | – | 6 to 40 nM |
| COc1cc2[nH]nc(-c3cnn(C4CN(C(=O)[C@H]5COCCN5C)C4)c3)c2nc1-c1cccc2c1CCC2 [Example 127, (R)-(3-(4-(5-(2,3-Dihydro-1H-inden-4-yl)-6-methoxy-1H-pyrazolo[4,3-b]pyridin-3-yl)-1H-pyrazol-1-yl)azetidin-1-yl)(4-methylmorpholin-3-yl)methanone] | 40 to 100 nM | < 6 nM | < 6 nM | 6 to 40 nM | – | – | – |
| COc1cc2[nH]nc(-c3ccc(C4CN(CCC#N)C4)nc3)c2nc1-c1cccc2c1CCC2 [Example 187, 3-(3-(5-(5-(2,3-Dihydro-1H-inden-4-yl)-6-methoxy-1H-pyrazolo[4,3-b]pyridin-3-yl)pyridin-2-yl)azetidin-1-yl)propanenitrile] | – | < 6 nM | < 6 nM | 6 to 40 nM | – | – | 6 to 40 nM |
| COc1cc2[nH]nc(-c3cnn([C@H]4CC[C@H](O)CC4)c3)c2nc1-c1cccc2c1CCC2 [Example 33, (trans)-4-(4-(5-(2,3-Dihydro-1H-inden-4-yl)-6-methoxy-1H-pyrazolo[4,3-b]pyridin-3-yl)-1H-pyrazol-1-yl)cyclohexan-1-ol] | > 100 nM | < 6 nM | < 6 nM | – | 40 to 100 nM | – | – |
| COCC(=O)N(C)C1CC(c2ccc(-c3n[nH]c4cc(OC)c(-c5cccc6c5CCC6)nc34)cn2)C1 (centres unmarked) [Example 188, N-(3-(5-(5-(2,3-Dihydro-1H-inden-4-yl)-6-methoxy-1H-pyrazolo[4,3-b]pyridin-3-yl)pyridin-2-yl)cyclobutyl)-2-methoxy-N-methylacetamide] | – | < 6 nM | < 6 nM | 6 to 40 nM | – | – | 6 to 40 nM |
| COc1cc2[nH]nc(-c3ccc(N4CCN(C(C)=O)CC4)cc3)c2nc1-c1cccc2c1CCC2 [Example 61, 1-(4-(4-(5-(2,3-Dihydro-1H-inden-4-yl)-6-methoxy-1H-pyrazolo[4,3-b]pyridin-3-yl)phenyl)piperazin-1-yl)ethan-1-one] | > 100 nM | < 6 nM | < 6 nM | – | 40 to 100 nM | – | – |
| COc1cc2[nH]nc(-c3ccc(CN4CCC(O)CC4)nc3)c2nc1-c1cccc2c1CCC2 [Example 160, 1-((5-(5-(2,3-Dihydro-1H-inden-4-yl)-6-methoxy-1H-pyrazolo[4,3-b]pyridin-3-yl)pyridin-2-yl)methyl)piperidin-4-ol] | 40 to 100 nM | < 6 nM | < 6 nM | – | 40 to 100 nM | – | – |
| COc1cc2[nH]nc(-c3ccc(C4CCN(C(C)=O)C4)nc3)c2nc1-c1cccc2c1CCC2C#N (single isomer, unassigned) [Example 183, 4-(3-(6-(1-Acetylpyrrolidin-3-yl)pyridin-3-yl)-6-methoxy-1H-pyrazolo[4,3-b]pyridin-5-yl)-2,3-dihydro-1H-indene-1-carbonitrile] | – | < 6 nM | < 6 nM | 6 to 40 nM | – | – | 6 to 40 nM |
| COc1cc2[nH]nc(-c3ccc(C4CCN(C(C)=O)CC4)nc3)c2nc1-c1cccc2c1CCC2C#N (single isomer, unassigned) [Example 182, 4-(3-(6-(1-Acetylpiperidin-4-yl)pyridin-3-yl)-6-methoxy-1H-pyrazolo[4,3-b]pyridin-5-yl)-2,3-dihydro-1H-indene-1-carbonitrile] | – | < 6 nM | < 6 nM | 6 to 40 nM | – | – | 6 to 40 nM |
| COc1cc2[nH]nc(-c3ccc(N4CCOCC4)nc3)c2nc1-c1cccc(C)c1C [Example 44, 4-(5-(5-(2,3-Dimethylphenyl)-6-methoxy-1H-pyrazolo[4,3-b]pyridin-3-yl)pyridin-2-yl)morpholine] | > 100 nM | < 6 nM | – | – | > 100 nM | 6 to 40 nM | – |

Results, then the compound that gave them:

| IC50 [1] | IC50 [2] | IC50 [3] | IC50 [4, 5] | IC50 [4, 6] | IC50 [3, 7] | IC50 [1, 8] | SMILES |
| --- | --- | --- | --- | --- | --- | --- | --- |
| > 100 nM | < 6 nM | < 6 nM | 6 to 40 nM | – | – | – | COc1cc2[nH]nc(-c3ccc(N4CCN(C(C)C)CC4)cc3)c2nc1-c1cccc2c1CCC2 [Example 62, 5-(2,3-Dihydro-1H-inden-4-yl)-3-(4-(4-isopropylpiperazin-1-yl)phenyl)-6-methoxy-1H-pyrazolo[4,3-b]pyridine] |
| 40 to 100 nM | < 6 nM | < 6 nM | 6 to 40 nM | – | – | – | COc1cc2[nH]nc(-c3cnn(C4CN(C(=O)[C@H]5C[C@@H](OC)C5)C4)c3)c2nc1-c1cccc2c1CCC2 [Example 153, (3-(4-(5-(2,3-Dihydro-1H-inden-4-yl)-6-methoxy-1H-pyrazolo[4,3-b]pyridin-3-yl)-1H-pyrazol-1-yl)azetidin-1-yl)((1s,3s)-3-methoxycyclobutyl)methanone] |
| – | < 6 nM | < 6 nM | – | 40 to 100 nM | – | 6 to 40 nM | COc1cc2[nH]nc(-c3cnn(CC#N)c3)c2nc1-c1cccc2c1CCC2C#N (single isomer, unassigned) [Example 185, 4-(3-(1-(Cyanomethyl)-1H-pyrazol-4-yl)-6-methoxy-1H-pyrazolo[4,3-b]pyridin-5-yl)-2,3-dihydro-1H-indene-1-carbonitrile] |
| – | < 6 nM | < 6 nM | 6 to 40 nM | – | – | 6 to 40 nM | COc1cc2[nH]nc(-c3cnn(C4CN(C(=O)[C@H]5CCOC5)C4)c3)c2nc1-c1cccc2c1CCC2 [Example 131, (S)-(3-(4-(5-(2,3-Dihydro-1H-inden-4-yl)-6-methoxy-1H-pyrazolo[4,3-b]pyridin-3-yl)-1H-pyrazol-1-yl)azetidin-1-yl)(tetrahydrofuran-3-yl)methanone] |
| 40 to 100 nM | < 6 nM | < 6 nM | 6 to 40 nM | – | – | – | COc1cc2[nH]nc(-c3ccc(C4CC(N(C)C(=O)[C@H](C)O)C4)nc3)c2nc1-c1cccc2c1CCC2 (stereo partly drawn) [Example 190, (S)-N-(3-(5-(5-(2,3-Dihydro-1H-inden-4-yl)-6-methoxy-1H-pyrazolo[4,3-b]pyridin-3-yl)pyridin-2-yl)cyclobutyl)-2-hydroxy-N-methylpropanamide] |
| 40 to 100 nM | < 6 nM | < 6 nM | 6 to 40 nM | – | – | – | COc1cc2[nH]nc(-c3cnn(C4CN(C(=O)[C@H](C)N(C)C)C4)c3)c2nc1-c1cccc2c1CCC2 [Example 118, (S)-1-(3-(4-(5-(2,3-Dihydro-1H-inden-4-yl)-6-methoxy-1H-pyrazolo[4,3-b]pyridin-3-yl)-1H-pyrazol-1-yl)azetidin-1-yl)-2-(dimethylamino)propan-1-one] |
| 40 to 100 nM | < 6 nM | < 6 nM | – | 40 to 100 nM | – | – | COc1cc2[nH]nc(-c3ccc(CN4CCN(C)C(=O)[C@@H]4C)nc3)c2nc1-c1cccc2c1CCC2 [Example 199, (S)-4-((5-(5-(2,3-Dihydro-1H-inden-4-yl)-6-methoxy-1H-pyrazolo[4,3-b]pyridin-3-yl)pyridin-2-yl)methyl)-1,3-dimethylpiperazin-2-one] |
| > 100 nM | < 6 nM | – | – | > 100 nM | 6 to 40 nM | – | COc1cc2[nH]nc(-c3cnn(C)c3)c2nc1-c1cccc2c1OCC2 [Example 4, 5-(2,3-Dihydrobenzofuran-7-yl)-6-methoxy-3-(1-methyl-1H-pyrazol-4-yl)-1H-pyrazolo[4,3-b]pyridine] |
